In publication PMC11645656, “MRGPRX4 mediates phospho-drug associated pruritus in a humanized mouse model” (Science translational medicine, 2024):
Values joined by “and” are separate entries in the source; they are usually repeats but may differ in a detail not shown here. Equal entries are not always repeated.

How the values were obtained:
MRGPRX4 (S83) = molecular target: T1, MRGPRX4 (S83) (Homo sapiens, UniProt Q96LA9, L83S); assay: EC50 determination, intracellular calcium mobilization in MRGPRX4 stably expressed HEK293 cells (FLIPR Calcium 5, Flexstation-3); format: cell-based; design: Fig. 1D dose-response, calcium mobilization response (individual replicate) / calcium mobilization response (Fig. 1D dose-response raw data): unit not given here; details: for calcium mobilization response (Fig. 1D dose-response raw data): individual replicate values
T1 construct: expressed in transfected cells
T1 sequence (Q96LA9 whole entry L83S): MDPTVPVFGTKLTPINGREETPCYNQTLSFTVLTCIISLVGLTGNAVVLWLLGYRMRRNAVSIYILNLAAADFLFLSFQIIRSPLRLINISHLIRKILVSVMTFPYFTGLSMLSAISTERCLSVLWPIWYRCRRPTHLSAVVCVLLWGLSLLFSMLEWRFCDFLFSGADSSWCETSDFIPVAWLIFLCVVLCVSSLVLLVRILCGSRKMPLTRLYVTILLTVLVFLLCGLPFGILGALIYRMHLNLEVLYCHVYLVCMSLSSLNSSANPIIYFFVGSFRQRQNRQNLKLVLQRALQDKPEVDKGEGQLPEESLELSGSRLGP
Method in brief: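 EC50 came from a four-parameter logistic fit to averaged triplicate responses, each response being maximum post-stimulation signal less baseline. Intracellular calcium was monitored with Calcium 5 dye in HBSS with 20 mM HEPES, pH 7.4, after 1 h dye loading at 37 °C, using stably transfected HEK293 cells and parental controls.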

[1] = tested on: NP2-X4+ mice (MRGPRX4 in Mrgpra3+ NP2 sensory neurons); assay: Itch behavioral study (scratching bouts after subcutaneous nape injection) in NP2-X4+ mice; format: in vivo, mouse
NP2-WT mice = assay: Itch behavioral study (scratching bouts after subcutaneous nape injection) in littermate control NP2-WT mice; format: in vivo; details: 30 min after injection of 50 μl 10 mM into the nape, each cell one mouse
From the text: Fig. 2. Phosphate monoester prodrugs induce itch in NP2-MRGPRX4+ mice through activating NP2 primary sensory neurons. (A) Mating strategy to generate NP2-X4+ mice. (B) In situ hybridization showing MRGPRX4 transcripts (magenta) in NP2-X4+ DRG as indicated by arrowheads (left) but not in littermate control NP2-WT (right). NP2 subpopulation accounts for 5% of total DRG neurons. DAPI, blue. Scale bar, 50 μm. […] . Data are expressed as mean ± SEM. *p< 0.05, **p< 0.01 and ***p< 0.001 by two-tailed unpaired Student’s t-test. ns = no statistical significance observed. (D and E) Traces of average (top, depicted as mean ± 95% confidence interval) and individual (bottom, reflected by the heatmap) calcium activity, measured by fluorescence intensity normalized to the baseline intensity (FT/F0) over time of NP2-X4+ (D) and NP2-WT (E) DRG neurons labelled with GCaMP6s (n = 110–150 neurons pooled from 3–7 independent culture vessels from 2–4 mice in each condition). 10 μM phospho-drugs and 1 mM CQ were added as indicated by the arrowheads. Neurons with FT/F0 > 1.5 after compound application were considered a positive responder. NP2-X4+: NP2-MRGPRX4+; DRG, dorsal root ganglia; CQ: chloroquine.
. All the animals used were heterozygous unless otherwise specified. NP2-X4+ and NP2-WT littermates were generated by crossing Mrgpra3-Cre to Rosa26-lsl-MRGPRX4 as detailed previously ([15]). NP2-X4+ mice were further crossed to homozygous Rosa26-lsl-GCaMP6s to obtain NP2-WT/GCaMP6s and NP2-X4+/GCaMP6s animals. A detailed mating strategy is illustrated in fig. S5. Pirt-Cre-GCaMP6s animals were acquired by crossing Pirt-Cre to homozygous Rosa26-lsl-GCaMP6s. Pirt-Cre animals were generated through homologous recombination as indicated previously ([37]). Rosa26-lsl-GCaMP6s mouse line was provided by Dr. Dwight Bergles’ lab at the Johns Hopkins School of Medicine.

HTLA cells = assay: PRESTO-Tango β-arrestin recruitment assay, parental HTLA cells without MRGPRX4 (control, fig. S1); format: cell-based
From the text: Supplement NIHMS2038790-supplement-table.xlsx, sheet "fig. S1" | column: Concentration (M)

[2] = IV, clinical trials; ref New Drug Application: 020450; cited from earlier work

For `O=C1NC(c2ccccc2)(c2ccccc2)C(=O)N1COP(=O)(O)O` [Fosphenytoin], the EC50 (MRGPRX4 (S83); MRGPRX4 stably expressed HEK293 cells, calcium mobilization, read-out: EC50) was 77 nM, the “calcium mobilization response (Fig. 1D dose-response raw data)” value (from here on “calcium mobilization response”) (MRGPRX4 (S83); concentration 3.90625e-9 M) was 21.206 and 25.291 and 2.769 and 3.958 and -8.2623 and 8.875 and 8.837 and 9.145 and 8.934 and the “calcium mobilization response” value (MRGPRX4 (S83); concentration 7.8125e-9 M) was -14.542 and 13.805 and 7.794 and 12.8387 and 12.8087 and 12.5987 and 3.298 and 9.875 and 9.477. The “calcium mobilization response” value (MRGPRX4 (S83); concentration 1.5625e-8 M) was 19.866 and 22.527 and 5.041 and 1.449 and 6.253 and 14.7987 and -3.2365 and 13.5705 and -5.8765, the “calcium mobilization response” value (MRGPRX4 (S83); concentration 3.125e-8 M) was 57.235 and 30.337 and 81.497 and 17.5777 and 19.6667 and 31.6637 and -30.287 and 41.9265 and -1.7705 and the “calcium mobilization response” value (MRGPRX4 (S83); concentration 6.25e-8 M) was 190.544 and 229.236 and 134.524 and 58.9937 and 67.8137 and 76.3827 and 88.4165 and 111.221 and 55.6105. The “calcium mobilization response” value (MRGPRX4 (S83); concentration 1.25e-7 M) was 316.003 and 301.004 and 304.213 and 117.536 and 116.768 and 79.1877 and 194.175 and 173.792 and 144.932, the “calcium mobilization response” value (MRGPRX4 (S83); concentration 2.5e-7 M) was 345.7 and 324.779 and 337.838 and 121.175 and 136.568 and 118.794 and 200.38 and 226.084 and 171.163 and the “calcium mobilization response” value (MRGPRX4 (S83); concentration 5e-7 M) was 387.516 and 373.964 and 353.304 and 134.73 and 112.159 and 119.649 and 195.132 and 238.81 and 185.954. The “calcium mobilization response” value (MRGPRX4 (S83); concentration 1e-6 M) was 410.183 and 413.027 and 415.898 and 143.736 and 123.579 and 132.916 and 226.932 and 271.213 and 250.762, the “calcium mobilization response” value (MRGPRX4 (S83); concentration 2e-6 M) was 394.314 and 370.112 and 382.271 and 127.759 and 125.948 and 138.324 and 218.164 and 295.676 and 255.523 and the Hill coefficient (MRGPRX4 (S83); dose-response curve fitting, table S1) was 1.917. The “Scratching / itch behavior, NP2-X4+ mice vs WT littermates” value ([1]; 50 μl 10 mM nape injection, 30 min) was “significantly increased scratching behavior”, the “Scratching bouts of individual animals” value ([1]; NP2-X4+, 30 min after injection of 50 μl 10 mM into the nape, each cell one mouse) was 32 and 55 and 37 and 89 and 49 and 39 and 73 and 83 and 25 and 94 and the “Scratching bouts of individual animals” value (NP2-WT mice) was 33 and 0 and 2 and 9 and 5 and 14 and 6 and 20 and 4. The “PRESTO-Tango response (fig. S1), single replicate” value (from here on “PRESTO-Tango response (fig. S1)”) (HTLA cells; concentration 3.91e-6 M) was 0.004928 and 0.004598 and 0.01112 and 0.01116 and 0.003197 and 0.004271, the “PRESTO-Tango response (fig. S1)” value (HTLA cells; concentration 7.81e-6 M) was 0.007499 and 0.005683 and 0.007727 and 0.01002 and 0.00431 and 0.008159 and the “PRESTO-Tango response (fig. S1)” value (HTLA cells; concentration 1.56e-5 M) was 0.004669 and 0.01023 and 0.009474 and 0.01705 and 0.007507 and 0.01409. For the same compound, the “PRESTO-Tango response (fig. S1)” value (HTLA cells; concentration 3.13e-5 M) was 0.006626 and 0.01061 and 0.0114 and 0.01987 and 0.004604 and 0.008542, the “PRESTO-Tango response (fig. S1)” value (HTLA cells; concentration 6.25e-5 M) was 0.01361 and 0.01504 and 0.01581 and 0.04311 and 0.006432 and 0.0129 and the “PRESTO-Tango response (fig. S1)” value (HTLA cells; concentration 0.00025 M) was 0.01688 and 0.03926 and 0.02383 and 0.08171 and 0.008888 and 0.02076. The “PRESTO-Tango response (fig. S1)” value (HTLA cells; concentration 0.0005 M) was 0.0416 and 0.04542 and 0.03124 and 0.09673 and 0.01269 and 0.03191, the “PRESTO-Tango response (fig. S1)” value (HTLA cells; concentration 0.001 M) was 0.01837 and 0.05513 and 0.03077 and 0.1069 and 0.01168 and 0.03953 and the “PRESTO-Tango response (fig. S1)” value (HTLA cells; concentration 0.002 M) was 0.01971 and 0.05409 and 0.03051 and 0.1054 and 0.01079 and 0.03852. For the same compound, the “PRESTO-Tango response (fig. S1)” value (HTLA cells; concentration 0.004 M) was 0.01886 and 0.05018 and 0.02929 and 0.08185 and 0.01164 and 0.032 and the “Patients who reported itch” value [2] was 48.9%.
